Tests used:
[1] = tested on: HBV replication in HepAD38 cells; assay: Anti-HBV activity in HepAD38 cells, extracellular HBV DNA by QPCR; format: cell-based, HBV (genotype D, serotype ayw); details: Hepatitis B virus, HePAD38, 168 h, read-out: Anti-HBV EC50, HepAD38 cells, extracellular HBV DNA by QPCR, 7 days of incubation
Outline: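 Seven-day compound exposure (30 μM down to 10 nM, half-log steps) after tetracycline withdrawal induced HBV replication in HepAD38 cells. Extracellular viral DNA measured by QPCR (copies/mL via standard curve), normalised to DMSO wells; EC50 from 4-parameter non-linear regression.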

[2] = In vitro cytotoxicity, MTT cell viability assay in HepG2 cells; format: cell-based; details: human, Cytotoxicity CC50
Outline: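 Viability measured by MTT conversion, absorbance at 492 nm, as percent of vehicle-treated wells. Compounds spanned 30 μM to 1.0 nM in half-log steps over a 7-day exposure of parental HepG2 cells; CC50 derived by 4-parameter curve fit.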

Row | Structure (SMILES) | EC50 [1] [µM] | CC50 at 7 days [2] [µM]
1 | Cc1cc(NC(=O)c2ccc(N)c(C(F)(F)C(=O)N3CCC(O)CC3)c2)ccc1F [Example 299, 4-amino-3-(1,1-difluoro-2-(4-hydroxypiperidin-1-yl)-2-oxoethyl)-N-(4-fluoro-3-methylphenyl)benzamide] | < 5 | 5 to 30
2 | Cc1cc(NC(=O)c2cccc(C(F)(F)C(=O)N3CCC(O)CC3)c2F)ccc1F [Example 92, 3-(1,1-difluoro-2-(4-hydroxypiperidin-1-yl)-2-oxoethyl)-2-fluoro-N-(4-fluoro-3-methylphenyl)benzamide] | < 5 | 5 to 30
3 | O=C(Nc1ccc(F)c(F)c1)c1ccc(F)c(C(F)(F)C(=O)NCc2ccncc2)c1 [Example 51, 3-(1,1-difluoro-2-oxo-2-((pyridin-4-ylmethyl)amino)ethyl)-N-(3,4-difluorophenyl)-4-fluorobenzamide] | < 5 | > 30
4 | Cc1cc(NC(=O)c2ccc(F)c(C(F)(F)C(=O)N3CCc4[nH]c(=O)oc4C3)c2)ccc1F [Example 289, 3-(1,1-difluoro-2-oxo-2-(2-oxo-1,4,6,7-tetrahydrooxazolo[5,4-c]pyridin-5(2H)-yl)ethyl)-4-fluoro-N-(4-fluoro-3-methylphenyl)benzamide] | < 5 | 5 to 30
5 | Cc1cc(NC(=O)c2ccn(C)c2C(F)(F)C(=O)NC2CCC(O)CC2)ccc1F (centres unmarked) [Example 126, 2-(1,1-difluoro-2-(((1s,4s)-4-hydroxycyclohexyl)amino)-2-oxoethyl)-N-(4-fluoro-3-methylphenyl)-1-methyl-1H-pyrrole-3-carboxamide] | 5 to 30 | > 30
6 | Cc1cc(NC(=O)c2csc(C(F)(F)C(=O)N3CCC(O)CC3)n2)ccc1F [Example 30, 2-(1,1-difluoro-2-(4-hydroxypiperidin-1-yl)-2-oxoethyl)-N-(4-fluoro-3-methylphenyl)thiazole-4-carboxamide] | 5 to 30 | 5 to 30
7 | COC(=O)N[C@@H]1C[C@H]2COC[C@@H](C1)N2C(=O)C(F)(F)c1cc(C(=O)Nc2ccc(F)c(C)c2)ccc1F [Example 307, methyl ((1R,5S,7r)-9-(2,2-difluoro-2-(2-fluoro-5-((4-fluoro-3-methylphenyl)carbamoyl)phenyl)acetyl)-3-oxa-9-azabicyclo[3.3.1]nonan-7-yl)carbamate] | < 5 | 5 to 30
8 | O=C(Nc1ccc(F)c(Cl)c1)c1ccc(F)c(C(F)(F)C(=O)N2CCC(O)C(F)(F)C2)c1 (centres unmarked) [Example 169, N-(3-chloro-4-fluorophenyl)-3-(2-(3,3-difluoro-4-hydroxypiperidin-1-yl)-1,1-difluoro-2-oxoethyl)-4-fluorobenzamide] | < 5 | 5 to 30
9 | O=C(Nc1ccc(F)c(Cl)c1)c1ccc(F)c(C(F)(F)C(=O)N2CCC(O)CC2)c1 [Example 85, N-(3-chloro-4-fluorophenyl)-3-(1,1-difluoro-2-(4-hydroxypiperidin-1-yl)-2-oxoethyl)-4-fluorobenzamide] | < 5 | 5 to 30
10 | Cc1cc(NC(=O)c2ccc(F)c(C(F)(F)C(=O)N3CCC(O)CC3)c2)ccc1F [Example 29, 3-(1,1-difluoro-2-(4-hydroxypiperidin-1-yl)-2-oxoethyl)-4-fluoro-N-(4-fluoro-3-methylphenyl)benzamide] | < 5 | > 30
11 | O=C(Nc1ccc(F)c(F)c1)c1ccc(F)c(C(F)(F)C(=O)N2CCCC(CO)C2)c1 (centres unmarked) [Example 49, 3-(1,1-difluoro-2-(3-(hydroxymethyl)piperidin-1-yl)-2-oxoethyl)-N-(3,4-difluorophenyl)-4-fluorobenzamide] | < 5 | > 30
12 | Cc1cc(NC(=O)c2c(C)cn(C)c2C(F)(F)C(=O)NC(C)(C)C)ccc1F [Example 114, 2-(2-(tert-butylamino)-1,1-difluoro-2-oxoethyl)-N-(4-fluoro-3-methylphenyl)-1,4-dimethyl-1H-pyrrole-3-carboxamide] | > 30 | > 30
13 | Cc1cc(NC(=O)c2ccc(F)c(C(F)(F)C(=O)N3C4CC[C@@H]3C[C@@H](C(=O)N3CCOCC3)C4)c2)ccc1F [Example 260, 3-(1,1-difluoro-2-((1R,3s,5S)-3-(morpholine-4-carbonyl)-8-azabicyclo[3.2.1]octan-8-yl)-2-oxoethyl)-4-fluoro-N-(4-fluoro-3-methylphenyl)benzamide] | < 5 | > 30
14 | Cc1cc(NC(=O)c2ccc(F)c(C(F)(F)C(=O)Nc3nc4c(s3)CCNC4)c2)ccc1F [Example 309, 3-(1,1-difluoro-2-oxo-2-((4,5,6,7-tetrahydrothiazolo[4,5-c]pyridin-2-yl)amino)ethyl)-4-fluoro-N-(4-fluoro-3-methylphenyl)benzamide] | 5 to 30 | 5 to 30
15 | CC(=O)N[C@@H]1CC2CC[C@H](C1)N2C(=O)C(F)(F)c1cc(C(=O)Nc2ccc(F)c(C)c2)ccc1F [Example 263, 3-(2-((1R,3r,5S)-3-acetamido-8-azabicyclo[3.2.1]octan-8-yl)-1,1-difluoro-2-oxoethyl)-4-fluoro-N-(4-fluoro-3-methylphenyl)benzamide] | < 5 | 5 to 30
16 | Cc1cc(NC(=O)c2ccc(F)c(C(F)(F)C(=O)N3[C@@H]4COC[C@H]3C[C@H](NS(C)(=O)=O)C4)c2)ccc1F [Example 306, 3-(1,1-difluoro-2-((1R,5S,7r)-7-(methylsulfonamido)-3-oxa-9-azabicyclo[3.3.1]nonan-9-yl)-2-oxoethyl)-4-fluoro-N-(4-fluoro-3-methylphenyl)benzamide] | < 5 | 5 to 30
17 | Cc1cc(NC(=O)c2c(C)c(C(O)(C(=O)NC(C)(C)C)C(F)(F)F)c(C)n2C)ccc1F (centres unmarked) [Example 131, 4-(3-(tert-butylamino)-1,1,1-trifluoro-2-hydroxy-3-oxopropan-2-yl)-N-(4-fluoro-3-methylphenyl)-1,3,5-trimethyl-1H-pyrrole-2-carboxamide] | 5 to 30 | 5 to 30
18 | Cn1cc(NC(=O)c2ccc(F)c(C(F)(F)C(=O)N3CCC(O)C(F)(F)C3)c2)cn1 (centres unmarked) [Example 179, 3-(2-(3,3-difluoro-4-hydroxypiperidin-1-yl)-1,1-difluoro-2-oxoethyl)-4-fluoro-N-(1-methyl-1H-pyrazol-4-yl)benzamide] | 5 to 30 | > 30
19 | Cc1cc(NC(=O)c2ccc(F)c(C(F)(F)C(=O)N3CCC(O)(CO)CC3)c2)ccc1F [Example 75, 3-(1,1-difluoro-2-(4-hydroxy-4-(hydroxymethyl)piperidin-1-yl)-2-oxoethyl)-4-fluoro-N-(4-fluoro-3-methylphenyl)benzamide] | < 5 | 5 to 30
20 | O=C(Nc1ccc(F)cn1)c1ccc(Cl)c(C(F)(F)C(=O)N2CCC(O)CC2)c1 [Example 38, 4-chloro-3-(1,1-difluoro-2-(4-hydroxypiperidin-1-yl)-2-oxoethyl)-N-(5-fluoropyridin-2-yl)benzamide] | > 30 | > 30
21 | Cc1cc(NC(=O)c2ccc(F)c(C(F)(F)C(=O)N3CCC(O)CC3)n2)ccc1F [Example 300, 6-(1,1-difluoro-2-(4-hydroxypiperidin-1-yl)-2-oxoethyl)-5-fluoro-N-(4-fluoro-3-methylphenyl)picolinamide] | < 5 | 5 to 30
22 | Cc1cc(NC(=O)c2ccc(F)c(C(F)(F)C(=O)N3CCC(NC(=O)CN4CCC(O)CC4)C(C)(C)C3)c2)ccc1F (centres unmarked) [Example 301, 3-(1,1-difluoro-2-(4-(2-(4-hydroxypiperidin-1-yl)acetamido)-3,3-dimethylpiperidin-1-yl)-2-oxoethyl)-4-fluoro-N-(4-fluoro-3-methylphenyl)benzamide] | < 5 | 5 to 30
23 | O=C(Nc1ccc(Cl)cc1F)c1ccc(Cl)c(C(F)(F)C(=O)N2CCC(O)CC2)c1 [Example 37, 4-chloro-N-(4-chloro-2-fluorophenyl)-3-(1,1-difluoro-2-(4-hydroxypiperidin-1-yl)-2-oxoethyl)benzamide] | > 30 | > 30
24 | Cc1cc(NC(=O)c2cc(C(F)(F)C(=O)NC(C)C(F)(F)F)n(C)c2)ccc1F (centres unmarked) [Example 111, 5-(1,1-difluoro-2-oxo-2-((1,1,1-trifluoropropan-2-yl)amino)ethyl)-N-(4-fluoro-3-methylphenyl)-1-methyl-1H-pyrrole-3-carboxamide] | < 5 | > 30
25 | Cc1cc(NC(=O)c2ccc(F)c(C(F)(F)C(=O)N3[C@H]4CC[C@@H]3c3cn[nH]c3C4)c2)ccc1F [Example 265, 3-(1,1-difluoro-2-((4R,7S)-1,4,5,6,7,8-hexahydro-4,7-epiminocyclohepta[c]pyrazol-9-yl)-2-oxoethyl)-4-fluoro-N-(4-fluoro-3-methylphenyl)benzamide] | < 5 | 5 to 30
26 | COc1ccc(CNC(=O)C(F)(F)c2cc(C(=O)Nc3ccc(F)c(F)c3)ccc2F)c(OC)c1 [Example 64, N-(3,4-difluorophenyl)-3-(2-((2,4-dimethoxybenzyl)amino)-1,1-difluoro-2-oxoethyl)-4-fluorobenzamide] | 5 to 30 | 5 to 30
27 | Cc1cc(NC(=O)c2ccc(F)c(C(F)(F)C(=O)N3CCC(NS(C)(=O)=O)C(F)(F)C3)c2)ccc1F (centres unmarked) [Example 335, 3-(2-(3,3-difluoro-4-(methylsulfonamido)piperidin-1-yl)-1,1-difluoro-2-oxoethyl)-4-fluoro-N-(4-fluoro-3-methylphenyl)benzamide] | < 5 | > 30
28 | Cc1cc(NC(=O)c2ccc(Cl)c(C(F)(F)C(=O)N3CC=CCC3)c2)ccc1F [Example 74, 4-chloro-3-(2-(3,6-dihydropyridin-1(2H)-yl)-1,1-difluoro-2-oxoethyl)-N-(4-fluoro-3-methylphenyl)benzamide] | < 5 | 5 to 30
